Here are results for 3 molecules from US7902184B2, “Piperazinyl pyrimidine derivatives” (Hoffmann-La Roche Inc., priority 2006, dated 2011).

T1 sequence (Q9Y5N1 whole entry): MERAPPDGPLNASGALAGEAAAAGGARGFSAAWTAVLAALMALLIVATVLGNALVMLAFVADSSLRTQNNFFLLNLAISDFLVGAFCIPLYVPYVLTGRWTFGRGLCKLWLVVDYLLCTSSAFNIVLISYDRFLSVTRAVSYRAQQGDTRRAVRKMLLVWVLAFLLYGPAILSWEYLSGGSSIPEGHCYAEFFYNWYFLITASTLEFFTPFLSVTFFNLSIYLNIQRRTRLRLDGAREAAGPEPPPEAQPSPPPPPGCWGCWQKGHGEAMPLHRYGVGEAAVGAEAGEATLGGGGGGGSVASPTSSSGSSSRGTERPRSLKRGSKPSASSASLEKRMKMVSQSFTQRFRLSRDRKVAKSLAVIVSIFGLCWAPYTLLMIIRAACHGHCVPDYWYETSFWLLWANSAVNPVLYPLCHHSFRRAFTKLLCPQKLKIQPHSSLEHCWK

This experiment addresses T1, histamine 3 receptor (H3R) (Homo sapiens, UniProt Q9Y5N1).
T1 construct: expressed in transfected cells; host or cells: CHO cells (membranes)
The experiment can be described thus: Binding assay with 3H-(R)α-methylhistamine (competition binding, H3R-CHO membranes). The conditions noted are these: membrane of the human H3R-CHO cell line; 3H(R)α-methylhistamine 1 nM; Ki calculated from IC50 by Cheng-Prusoff. The method, then:
Binding Assay with ^3H—(R)α-methylhistamine
Saturation binding experiments were performed using HR3-CHO membranes prepared as described in Takahashi, K, Tokita, S., Kotani, H. (2003) J. Pharmacol. Exp. Therapeutics 307, 213-218.
An appropriate amount of membrane (60 to 80 μg protein/well) was incubated with increasing concentrations of ^3H(R)α-methylhistamine di-hydrochloride (0.10 to 10 nM). Non specific binding was determined using a 200 fold excess of cold (R)α-methylhistamine dihydrobromide (500 nM final concentration). The incubation was carried out at room temperature (in deep-well plates shaking for three hours). The final volume in each well was 250 μl. The incubation was followed by rapid filtration on GF/B filters (pre-soaked with 100 μl of 0.5% PEI in Tris 50 mM shaking at 200 rpm for two hours). The filtration was made using a cell-harvester and the filter plates were then washed five times with ice cold washing buffer containing 0.5 M NaCl. After harvesting, the plates were dried at 55° C. for 60 min, then scintillation fluid (Microscint 40, 40 microl in each well) was added and the amount of radioactivity on the filter was determined in Packard top-counter after shaking the plates for two hours at 200 rpm at room temperature.
Binding Buffer: 50 mM Tris-HCl pH 7.4 and 5 mM MgCl2×6H2O pH 7.4. Washing Buffer: 50 mM Tris-HCl pH 7.4 and 5 mM MgCl2×6H2O and 0.5 M NaCl pH 7.4.
Indirect measurement of affinity of H3R inverse agonists: twelve increasing concentrations (ranging from 10 μM to 0.3 nM) of the selected compounds were always tested in competition binding experiments using membrane of the human H3R-CHO cell line. […]
All compounds were tested at a single concentration in duplicate. […] Ki's were calculated from IC50 based on Cheng-Prusoff equation (Cheng, Y, Prusoff, W H (1973) Biochem Pharmacol 22, 3099-3108): Ki=IC50/[1+D/Kd] wherein D is the concentration of the radioligand and Kd is the binding constant for the radioligand binding to the receptor and the conditions used in the competition experiment.
In general, Ki refers to the dissociation constant of the complex between target and ligand, obtained from inhibition or displacement. Regarding `O=C(Nc1ccnc(N2CCN(C3CCCC3)CC2)n1)N1CCCCCC1` [Example 6, azepane-1-carboxylic acid [2-(4-cyclopentyl-piperazin-1-yl)-pyrimidin-4-yl]-amide], the Ki was 51 nM.
For the molecule `CC(C)N1CCN(c2cc(NC(=O)N3CCCCC3)ncn2)CC1` [Example 54, piperidine-1-carboxylic acid [6-(4-isopropyl-piperazin-1-yl)-pyrimidin-4-yl]-amide], the Ki is 34.6 nM.
As for `CC1CC(C)CN(C(=O)Nc2cc(N3CCN(C4CCCCC4)CC3)ncn2)C1` (stereo not drawn) [Example 93, 3,5-Dimethyl-piperidine-1-carboxylic acid [6-(4-cyclohexyl-piperazin-1-yl)-pyrimidin-4-yl]-amide], the inhibition constant (Ki) is 22.2 nM.
